Reference: US20150065509A1 (priority 2012, published 2015)
Values after ≈ are worked out from the molar mass of the structure shown. Read-outs that look alike come from different tables or passages of the source.

Assays:
B. anthracis Sterne = experiment: microbe, parasite or virus in culture; format: cell-based; conditions: for MIC: Bacillus anthracis, 16 h, read-out: MIC (Minimum Inhibitory Concentration)
[1] = target: dihydrofolate reductase (DHFR) (Bacillus anthracis, UniProt Q81R22); experiment: biochemical; format: biochemical, B. anthracis Sterne
Chain of dihydrofolate reductase (DHFR) (Q81R22 1-162): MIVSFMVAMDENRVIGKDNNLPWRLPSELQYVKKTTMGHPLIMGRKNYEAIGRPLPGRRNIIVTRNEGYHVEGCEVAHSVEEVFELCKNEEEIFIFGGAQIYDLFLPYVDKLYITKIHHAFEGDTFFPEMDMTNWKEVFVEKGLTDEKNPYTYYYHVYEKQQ

## CCCC1c2ccccc2C=NN1C(=O)/C=C/c1cc(Cc2c(C)nc(N)nc2N)cc(OC)c1OC (centres unmarked) [Compound 10, (E)-3-(5-((2,4-Diamino-6-methylpyrimidin-5-yl)methyl)-2,3-dimethoxyphenyl)-1-(1-propyl-phthalazin-2(1H)-yl)prop-2-en-1-one]
B. anthracis Sterne
  MIC: 8000 µg/mL (≈ 16 mM)
[1]
  IC50: 0.517 µM
other
  melting point: 137 to 138 °C

## CCCC1c2ccccc2C=NN1C(=O)/C=C/c1cc(Cc2c(N)nc(N)nc2CC)cc(OC)c1OC (centres unmarked) [Compound 11, (E)-3-(5-((2,4-Diamino-6-ethylpyrimidin-5-yl)methyl)-2,3-dimethoxyphenyl)-1-(propyl-phthalazin-2(1H)-yl)prop-2-en-1-one]
B. anthracis Sterne
  MIC (Minimum Inhibitory Concentration): 4000 µg/mL (≈ 7.77 mM)
[1]; read-out: IC50
  IC50: 17.4 µM

## CCCc1nc(N)nc(N)c1Cc1cc(/C=C/C(=O)N2N=Cc3ccccc3C2CCC)c(OC)c(OC)c1 (centres unmarked) [Compound 12, (E)-3-(5-((2,4-Diamino-6-propylpyrimidin-5-yl)methyl)-2,3-dimethoxyphenyl)-1-(1-propyl-phthalazin-2(1H)-yl)prop-2-en-1-one]
B. anthracis Sterne
  MIC: 1000 µg/mL (≈ 1.89 mM)
[1]
  IC50: 17.1 µM
other
  melting point: 140 to 141 °C

## COc1cc(Cc2c(C)nc(N)nc2N)cc(/C=C/C(=O)N2N=Cc3ccccc3C2C=C(C)C)c1OC (centres unmarked) [Compound 13, (E)-3-(5-((2,4-Diamino-6-methylpyrimidin-5-yl)methyl)-2,3-dimethoxyphenyl)-1-(isobutenylphthalazin-2(1H)-yl)prop-2-en-1-one]
B. anthracis Sterne
  MIC (Minimum Inhibitory Concentration): 4000 µg/mL (≈ 7.8 mM)
[1]; read-out: IC50
  IC50: 0.102 µM

## CCc1nc(N)nc(N)c1Cc1cc(/C=C/C(=O)N2N=Cc3ccccc3C2C=C(C)C)c(OC)c(OC)c1 (centres unmarked) [Compound 14, (E)-3-(5-((2,4-Diamino-6-ethylpyrimidin-5-yl)methyl)-2,3-dimethoxyphenyl)-1-(isobutenylphthalazin-2(1H)-yl)prop-2-en-1-one]
B. anthracis Sterne
  MIC (Minimum Inhibitory Concentration): 4000 µg/mL (≈ 7.6 mM)
[1]; read-out: IC50
  IC50: 0.181 µM

## CCCc1nc(N)nc(N)c1Cc1cc(/C=C/C(=O)N2N=Cc3ccccc3C2C=C(C)C)c(OC)c(OC)c1 (centres unmarked) [Compound 15, (E)-3-(5-((2,4-Diamino-6-propylpyrimidin-5-yl)methyl)-2,3-dimethoxyphenyl)-1-(isobutenylphthalazin-2(1H)-yl)prop-2-en-1-one]
B. anthracis Sterne
  MIC (Minimum Inhibitory Concentration): 2000 µg/mL (≈ 3.7 mM)
[1]; read-out: IC50
  IC50: 18 µM
